Key:
C. albicans [1] = assay: In vitro co-culture assay of C. albicans and K. weizmannii; assay type: cell-based, Candida albicans; settings: in vitro coculture, flow cytometry
Experimental: FIGS. 2A-2F include micrographs, graphs, a plot, and a curve showing in vitro culture characteristics of K. weizmannii. (2A) Representative images of C. albicans and K. weizmannii in liquid media in presence of filament-inducing conditions, n=3 independent experiments. (2B) A graph showing largest differences in growth between K. weizmannii and C. albicans with different carbon sources, based on a z-score > or <2. Differences were calculated using the normalized area under the curve (AUC) of K. weizmannii and C. albicans. Normalization of the AUC are based on the growth of both species with glucose. Size of data points corresponds to the normalized AUC of K. weizmannii with the corresponding carbon source. All measurements were done using the Biolog Phenotype MicroArrays in biological triplicates. […] The data points are color-coded according to the different types of carbon sources. (2C) A graph showing the largest differences in growth between K. weizmannii and C. albicans with different nitrogen sources, based on a z-score greater than or less than 2. Differences were calculated using AUC of K. weizmannii and C. albicans and normalized based on the growth of both species with glutamine. […] GFP expressing C. albicans was detected by flowcytometry to discriminate between fungi, n=2 independent experiments.

[2] = test system: neutrophils, classical and non-classical monocytes; assay: Flow cytometric analysis of myeloid blood cell compartment of colonized mice; assay type: in vivo; settings: Abx-treated mice, 4 weeks colonized
From the text: FIGS. 4A-4F include graphs showing humoral and cellular immune responses to C. albicans and Kazachstania sp. (4A) Flow cytometric analysis of myeloid blood cell compartment of mice 4 weeks colonized with C. albicans or K. weizmannii. Neutrophils, classical and non-classical monocytes are defined as Ly6G+CD 115−, Ly6C+CD 115+, and […], respectively. N=8-21 mice, pooled from 3 independent experiments. Gating strategy, left, results, right. (4B) Flow cytometric analysis of humoral anti-fungal reactivity. Gating strategy for the determination of serum immunoglobulin binding to cultured C. albicans or K. weizmannii. (4C) Anti-C. albicans and K. weizmannii IgA and IgG serum reactivity of single-colonized animals, measured as shown in (4B). Note that most but not all animals harbor cross-reactive sera. (4D) Representative gating strategy of RORγt+ T cells (left); percentage of RORγt+ cells among TCRβ CD4+ T cells 5 weeks upon C. albicans or K. weizmannii colonization, n=3-5 mice per group, 3 independent experiments (right). […] EC damage was assessed using the LDH assay as described in (Allert et al., 2018). […]
Methods adhered to published guidelines (Cossarizza et al., 2019). Flow cytometry samples were recorded on BD LSR Fortessa 4 lasers or Cytek Aurora followed by data analysis using the FlowJo software (Treestar).

C2BBe1 cells = assay: Epithelial cell co-culture cytotoxicity (LDH assay); assay type: cell-based
Experimental: Quantification of cytotoxicity (LDH assay). Differentiated C2BBe1 cells in 96-well plates were infected for a defined time period with 10^4 C. albicans, S. cerevisiae and K. weizmannii. cells/well. After coincubation, epithelial damage was quantified by measuring LDH release using a cytotoxicity detection kit (Roche) according to the manufacturer's instructions.

C. albicans [3] = assay: Candidiasis in immunosuppressed C. albicans-colonized mice given Kazachstania-supplemented drinking water; assay type: in vivo
Experimental: Stably fungal-colonized mice were 5×s.c injected with 225 mg kg-1 with cortisone 21-acetate, following the scheme of injection every other day as described previously (Solis and Filler, 2012). Mice were monitored for weight loss. Following sacrifice, organs and feces were collected for histological examination, flow cytometry and fungal cultivations). If the weight dropped […], mice were sacrificed according to IACUC protocol.
For enumerating the number of recoverable C. albicans and K. weizmannii colony forming units, individual fecal pellets or each tissue from mice was sterilely dissected, weighed, and homogenized in sterile DDW. Serial dilutions on the organ homogenate were spread onto YPD media plates and the number of individual colonies enumerated after incubation at 37° C. for 24 hours.
Mice were euthanized and intestines, kidneys and tongue were excised and fixed overnight in 4% paraformaldehyde at 4° C. Paraffin embedding and sectioning was performed by the institutional histology unit. For immunohistochemistry of gut samples, slides were deparaffinized by 2 washes of Xylene followed by 100%, 96%, 70% EtOH and three washes with PBS. Slides were incubated for 30 minutes in 1% hydrogen peroxide in PBS at room temperature in the dark. After washing three times in PBS, slides were boiled for 10 minutes in Citric acid buffer pH 6.0 (10 mM citric acid and 0.05% Tween-20 in DDW), then washed with PBS three times. Next, slides were blocked in BP buffer (0.3% Triton X-100, 2% horse serum and 1% bovine serum albumin in PBS) for 1 h, then incubated overnight at 4° C. with a 1:200 dilution of the primary antibody (anti-Candida) in BP buffer. […] For histopathology of typical tongue or kidney fungal lesions in the mouse model of immunosuppression, paraffin sections were stained with periodic acid-Schiff (PAS) or H&E and slides were captured using a Panoramic SCAN II (3DHISTECH) and analyzed using CaseViewer software (3DHISTECH).

Kazachstania weizmannii [K. weizmannii]
growth interference in co-culture with C. albicans (C. albicans [1]): grew together without interference
abundance of blood granulocytes and monocytes [2]: no significantly altered abundance of granulocytes, classical or non-classical monocytes
protection from C. albicans-induced EC damage (C2BBe1 cells; co-infection with K. weizmannii and C. albicans): did not prevent EC damage
EC damage / viability (LDH release) (C2BBe1 cells; single fungus co-culture): did not affect EC viability
C. albicans in feces of colonized animals (C. albicans [3]; Kazachstania-supplemented drinking water prior to immunosuppression): efficiently expelled C. albicans from colonized animals
weight loss and systemic yeast spread (kidney colonization) (C. albicans [3]; immunosuppressed C. albicans-colonized animals exposed to K. weizmannii): significantly delayed the weight loss and systemic yeast spread
durability of protection (C. albicans [3]; prolonged immunosuppressive treatment): not permanently protected
